Results reported in BigSolDB 2.1.

Nc1cccc(S(=O)(=O)c2cccc(N)c2)c1
solubility (mole fraction)
Conditions	283.15 K	288.15 K	293.15 K	298.15 K	303.15 K	308.15 K	313.15 K	318.15 K	323.15 K	328.15 K
in 1,4-dioxane	0.00411	0.00462	0.00538	0.00652	0.0083	0.0102	0.0123	0.0147	0.0169	0.0194
in DMF	0.0869	0.0916	0.0989	0.11	0.12	0.132	0.146	0.162	0.181	0.2
in acetonitrile	0.00609	0.00709	0.0087	0.0105	0.0127	0.0151	0.0182	0.0225	0.0272	0.033
in cyclohexane	2.7e-06	3.6e-06	5.1e-06	7.7e-06	1.09e-05	1.51e-05	2.03e-05	2.78e-05	3.7e-05	4.86e-05
in ethanol	0.00237	0.00256	0.00297	0.00349	0.00415	0.00492	0.00574	0.00661	0.00738	0.00837
in ethyl acetate	0.0146	0.0162	0.0184	0.021	0.0243	0.0278	0.0321	0.037	0.0424	0.0485
in ethylene glycol	0.00458	0.00515	0.00595	0.00701	0.00843	0.0101	0.012	0.0144	0.0168	0.0194
